Laboratory results taken from PubChem BioAssay AID1645865 (Buhrlage Lab, Dana-Farber Cancer Institute and Novartis …, 2021).
Activity calls are given as the source filed them.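 How the source made its calls: active means maximal inhibition of the USP30 enzyme reaching 30% or more across the dose series; inactive means the rest.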

What follows are compounds tested against Ubiquitin carboxyl-terminal hydrolase 30 (Homo sapiens) (UniProt Q70CQ3) (assay: inhibitors of ubiquitin-specific protease 30 deubiquitylating enzyme, concentration dependence, in vitro biochemical, validation of primary hits (AID 1645865)). Details: purified USP30, Ub-rhodamine cleavage, fluorescence, 2 h.
Sequence of Ubiquitin carboxyl-terminal hydrolase 30 (Homo sapiens) (Q70CQ3 whole entry, looked up): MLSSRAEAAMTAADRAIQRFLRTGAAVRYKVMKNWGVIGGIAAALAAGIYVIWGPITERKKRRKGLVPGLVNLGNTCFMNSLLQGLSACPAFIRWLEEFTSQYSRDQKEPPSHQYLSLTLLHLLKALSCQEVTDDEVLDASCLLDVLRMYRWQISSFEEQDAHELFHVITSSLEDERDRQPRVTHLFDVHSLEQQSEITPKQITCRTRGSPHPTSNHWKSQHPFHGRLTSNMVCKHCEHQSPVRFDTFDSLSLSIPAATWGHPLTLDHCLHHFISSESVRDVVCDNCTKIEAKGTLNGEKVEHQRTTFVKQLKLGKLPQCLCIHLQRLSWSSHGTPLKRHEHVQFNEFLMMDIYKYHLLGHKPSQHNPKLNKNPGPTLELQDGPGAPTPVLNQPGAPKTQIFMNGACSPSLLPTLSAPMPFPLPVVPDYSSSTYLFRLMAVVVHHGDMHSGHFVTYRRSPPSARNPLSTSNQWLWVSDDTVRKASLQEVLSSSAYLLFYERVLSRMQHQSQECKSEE
In the case of COc1cc2cc3c(c(O)c2c(O)c1-c1c(OC)cc2cc4c(c(O)c2c1O)C(=O)OC1CC(C)OC41)C(=O)OC1CC(C)OC31 (stereo not given), the IC50 is reported as > 50 µM (inactive). Work on Cc1nn(Cc2ccccc2)c2sc(C(=O)Nc3nc4ccccc4[nH]3)cc12 yielded an IC50 of 19.4 µM. In the case of CCn1ccc2c(cc(C(=O)Nc3ccccc3F)n2C)c1=O, the IC50 is reported as > 50 µM (inactive). Work on Fc1ccc(-c2noc(-c3nnc(NCc4cccnc4)c4ccccc34)n2)cc1 yielded an IC50 of 1.92 µM. Compound O=C1C=CC(O)C2C1CC13SSC4(CC5C(=O)C=CC(O)C5N4C1=O)C(=O)N23 (stereo not given) has an IC50 of 1 µM. In the case of Cc1cn[nH]c1C1COCCN1C(=O)c1ccc2ncccc2c1 (stereo not given), the IC50 is reported as > 50 µM (inactive). For O=C(Nc1cccn(Cc2c(Cl)cccc2Cl)c1=O)c1ccccc1[N+](=O)[O-], the IC50 was > 50 µM (inactive). Cc1cc(C)c(NC(=O)Cn2c(=O)n(CCC(=O)NCc3ccc4c(c3)OCO4)c(=O)c3sccc32)c(C)c1 showed an IC50 of 1.98 µM. Compound Cc1cc(C(F)(F)F)n(-c2ccc(NC(=O)Nc3cccc(C(F)(F)F)c3)cc2)n1 has an IC50 of 8.68 µM. Compound COc1c(C)c(C(O)C(C)O)c2[nH]c3ccc(CC=C(C)C)cc3c2c1O (stereo not given) has an IC50 of 27.4 µM. For O=C(NCc1ccc(Cl)cc1)c1ccc(N2CCCS2(=O)=O)cc1, the IC50 was > 5 µM (inactive). For O=C(Nc1cc(F)ccc1F)c1ccn(COc2ccc(F)c(Cl)c2)n1, the IC50 was 22 µM. In the case of COc1cccc(CC(=O)Nc2cc(F)c3nc(N4CCOCC4)ccc3c2)c1, the IC50 is reported as > 50 µM (inactive). Compound CCn1cc(-c2cc(C(=O)Nc3cnn(Cc4cccc(F)c4)c3)c3ccccc3n2)cn1 has an IC50 of 49.2 µM. With Cc1ccc(CSC2=NS(=O)(=O)c3ccccc3N2)cc1 the IC50 was > 50 µM (inactive). Compound COc1ccc(CCN2COc3c(cc(Cl)c4cccnc34)C2)cc1OC has an IC50 of 13.6 µM. For COc1ccc(OC)c(NC(=O)CNC(=O)c2cc3c(OC)cccc3[nH]2)c1, the IC50 was > 50 µM (inactive). O=C(Cc1ccccc1F)Nc1nc(-c2ccco2)c(-c2ccco2)s1 was tested, and the IC50 was > 50 µM (inactive). O=C(Nc1ccc(-c2cn3ccsc3n2)cc1)c1ccc(Cl)c([N+](=O)[O-])c1 showed an IC50 of 1.27 µM. For N#Cc1c(N)nc2c(c1N)C(c1ccccc1)CO2 (stereo not given), the IC50 was 42.8 µM. For c1cnc(-c2n[nH]c(C3CCN(C4CCNC4)CC3)n2)cn1 (stereo not given), the IC50 was > 50 µM (inactive). For COc1ccc(CCC(=O)Nc2ccc3c(c2)Sc2ncccc2C(=O)N3C)cc1, the IC50 was > 50 µM (inactive). O=C(Cn1ncc2c(N3CCCCCC3)ncnc21)NCc1ccccc1 was tested, and the IC50 was > 50 µM (inactive). For O=C(NCCN1CCCC1)C1CCN(c2cnc(N3CCCCC3)nc2)CC1, the IC50 was > 50 µM (inactive). In the case of CCC(=O)Nc1nc2cc(NC(=O)Nc3cc(C)cc(C)c3)ccc2s1, the IC50 is reported as 1.65 µM. Work on Cc1ccc(-n2nc(C(=O)Nc3ccc(C)cn3)c3ncn(C)c(=O)c32)cc1 yielded an IC50 of 1.82 µM. With CC1(C)CC2CC(C)(CN2Cc2c(O)ccc3ccccc23)C1 (stereo not given) the IC50 was > 50 µM (inactive). Compound CCn1cnc2c(-c3ccccc3)cn(CC(=O)NCc3ccc4c(c3)OCO4)c2c1=O has an IC50 of 5 µM. Cc1ccc(-c2nc(Cn3nnc(-c4nc(-c5ccccn5)no4)c3C)c(C)o2)cc1 was tested, and the IC50 was > 50 µM (inactive). O=S1(=O)CCN(Cc2c(F)cccc2F)c2c(F)nc(N3CCOCC3)c(F)c21 was tested, and the IC50 was > 50 µM (inactive). For COc1ccc2c(C)c(CC(=O)N3CCC[C@H]3C(=O)O)c(=O)oc2c1C, the IC50 was 45 µM. With O=C(Nc1ccc2c(c1)OCO2)C1CCN(Cc2nc3ccccc3s2)CC1 the IC50 was > 50 µM (inactive). With COc1cc(C(=O)OCc2csc(-c3ccccc3)n2)ccc1OCC(=O)Nc1ccc(F)cc1 the IC50 was > 50 µM (inactive). O=C(Nc1cc(-c2cccnc2)no1)c1ccc(F)c(F)c1 showed an IC50 of 20 µM. COc1c2nc3ccccc3oc-2cc(=O)c1OC was tested, and the IC50 was > 50 µM (inactive). For CC(=O)Nc1cccc(NC(=O)COc2cccc3ccc(N4CCCC4)nc23)c1, the IC50 was > 50 µM (inactive). With CCOC(=O)c1cc2c(ccn2C)n1CC(=O)N1CCc2ccccc2C1 the IC50 was > 50 µM (inactive). For CCCCc1nc2sc3c(SCC(=O)NCc4ccccc4)ncnc3c2c2c1CCC2, the IC50 was > 50 µM (inactive). In the case of CC(C)c1nc2sc3c(N(CCO)CCO)ncnc3c2c2c1COC(C)(C)C2, the IC50 is reported as > 50 µM (inactive). For Cc1nn(-c2ccc(Cl)cc2)c2[nH]c(=O)c(CNCC3CCCO3)cc12 (stereo not given), the IC50 was > 50 µM (inactive). COc1cc(N)c(Cl)cc1C(=O)OCC(=O)c1ccc2c(c1)OCCO2 was tested, and the IC50 was > 50 µM (inactive). For COc1ccc(C(=O)Nc2cc(-c3ccccn3)no2)cn1, the IC50 was > 50 µM (inactive). In the case of CCC(C)c1ccc(-c2csc(Cn3c(CN4CCN(C)CC4)nc4ccccc4c3=O)n2)cc1 (stereo not given), the IC50 is reported as 1.63 µM. Cc1nc(-c2cccc(NC(=O)C3CCN(c4ccccc4)C3=O)c2)no1 (stereo not given) gave an IC50 of 45.3 µM. Clc1cncc(Oc2nc(-c3cccnc3)nc3ccccc23)c1 was tested, and the IC50 was 2.09 µM. Compound CCCCCC(=O)N1c2ccccc2NC2=C(C(=O)CC(c3ccc(C(C)(C)C)cc3)C2)C1c1ccncc1 (stereo not given) has an IC50 of 2.28 µM. With O=C(C1CCCN(S(=O)(=O)N2CCCCCC2)C1)N1CCN(c2ccccc2)CC1 (stereo not given) the IC50 was > 50 µM (inactive). Compound Cc1nc(-c2noc3ccc(C(=O)Nc4cccnc4)cc23)cs1 has an IC50 of 14.6 µM. Cc1cc(N2CCC(NC(=O)NCc3ccc(F)cc3)C2=O)ccc1F (stereo not given) was tested, and the IC50 was 7.68 µM. With CCC(=O)N1c2ccccc2NC2=C(C(=O)CC(c3ccccc3OCc3ccccc3)C2)C1c1ccccc1 (stereo not given) the IC50 was 2.39 µM. For COc1ccc(OC)c(NC(=O)Cn2c(=O)n(CC3CCC(C(=O)NCCc4ccccc4)CC3)c(=O)c3ccccc32)c1 (stereo not given), the IC50 was 1.77 µM. For Cc1cc(C)n(-c2ccc(C(=O)Nc3cccc(S(=O)(=O)N4CCCC4)c3)cc2)n1, the IC50 was 9.63 µM. O=C(Nc1ccccc1Cl)N(Cc1cc2cc3c(cc2[nH]c1=O)OCCO3)C1CCCCC1 showed an IC50 of 35.5 µM. CC(=O)c1sc(NC(=O)/C=C/c2ccccc2)nc1-c1ccccc1 was tested, and the IC50 was 18 µM. With CCc1ccc(NC(=O)COc2cccc(-n3cnnn3)c2)cc1 the IC50 was 26.6 µM. Cc1ccnc(NC(=O)c2ccn(COc3ccc(Cl)cc3)n2)c1 gave an IC50 of 22.8 µM. Fc1cccc(-n2cc(-c3noc(-c4ccccn4)n3)nn2)c1 was tested, and the IC50 was 27 µM. With CC1=C[C@H]2N(c3ccc(C)cc31)[C@H](C(=O)c1cccs1)[C@@H](C(=O)c1ccc(F)cc1)[C@]21C(=O)Nc2ccccc21 the IC50 was > 50 µM (inactive). With O=C(CC1C(=O)Nc2nc(-c3ccccc3)nn21)Nc1cccc2ccccc12 (stereo not given) the IC50 was 4.38 µM. COc1ccc(Nc2nc3c(S(=O)(=O)c4ccc(C)cc4)nnn3c3ccsc23)c(OC)c1 gave an IC50 of 0.401 µM. CC1=C(c2ccc(C)c(C)c2)S(=O)(=O)NC1=NCC(=O)NCCCc1ccccc1 was tested, and the IC50 was 19.7 µM. Cc1cc(C)c2c(-n3cccc3)c(C(=O)NCCc3ccc(S(N)(=O)=O)cc3)sc2n1 was tested, and the IC50 was > 50 µM (inactive). O=C(COc1ccc(Cl)cc1Cl)Nc1ccccc1-c1nc2ccccc2[nH]1 showed an IC50 of 1.61 µM. With Cc1cc(C(=O)NC2(O)C(=O)c3ccccc3C2=O)n(C)n1 the IC50 was 20.5 µM. Compound CC(C)(C)c1ccc(Cn2nnc3c(=O)[nH]c(C4CCN(S(=O)(=O)c5ccc(S(=O)(=O)NC6CC6)cc5)CC4)nc32)cc1 has an IC50 of 48.7 µM. For Cc1ccc(-c2nc(NC(=O)Nc3ccc(Cl)cc3)sc2C)cc1, the IC50 was 5.88 µM. Cc1sc(-c2ccc(Cl)nc2)nc1OC(=O)c1ccc(F)cc1F showed an IC50 of 8.06 µM. For COc1cc(O)c2c(O)c3c(cc2c1)CC(C)OC3=O (stereo not given), the IC50 was > 50 µM (inactive). Work on N#Cc1c(Cl)cccc1Oc1ccc(S(=O)(=O)N2CCC(O)CC2)cc1 yielded an IC50 of 19.6 µM. Compound CN(Cc1ccccc1)S(=O)(=O)c1ccc(S(=O)(=O)N2CCN(C(=O)c3cccnc3)CC2)cc1 has an IC50 of 15.8 µM. In the case of Cc1cccc(N2C(=O)/C(=C\c3ccc4c(c3)OCCO4)c3ccccc3C2=O)c1, the IC50 is reported as > 50 µM (inactive). For CC12c3ccc4c(c3C(=O)c3occ(c31)C(=O)CC2O)CCC4=O (stereo not given), the IC50 was > 50 µM (inactive). In the case of Cc1ccc(OCC(=O)Nc2cccc(-c3nc4ncccc4o3)c2)c(C)c1, the IC50 is reported as 34 µM. With O=C(O)c1nccnc1C(=O)N1CCc2ccccc2C1 the IC50 was > 50 µM (inactive). For Cc1oc(-c2ccc(C(=O)NCC3COCCO3)cc2)nc1CN1CCc2ccccc21 (stereo not given), the IC50 was > 50 µM (inactive). CCOc1ccc(C(=O)Cn2c(=O)n(CC3CCCO3)c(=O)c3cc(OC)c(OC)cc32)cc1Cl (stereo not given) showed an IC50 of 25.8 µM. Cc1ccc(C(=O)Nc2ccc3nccnc3c2)cc1 showed an IC50 of 34.3 µM. With CCn1c(CN2CCCC(c3nc(-c4cccnc4)n[nH]3)C2)nc2ccccc21 (stereo not given) the IC50 was > 50 µM (inactive). With O=C(NC1CC1)c1ccnn1-c1ccc2ccc(-c3ccncc3)cn12 the IC50 was > 50 µM (inactive). For C=C(NC(=O)C(=C)NC(=O)c1csc(C2=N[C@@H]3c4csc(n4)[C@H]4NC(=O)c5csc(n5)[C@H]([C@](C)(O)[C@@H](C)O)NC(=O)[C@H]5CSC(=N5)/C(=C/C)NC(=O)C([C@@H](C)O)NC(=O)c5csc(n5)C3(CC2)NC(=O)[C@H](C)NC(=O)C(=C)NC(=O)[C@H](C)NC(=O)C([C@@H](C)CC)N[C@@H]2C=Cc3c(C(C)O)cc(nc3[C@H]2O)C(=O)OC4C)n1)C(N)=O (stereo not given in full), the IC50 was > 50 µM (inactive). In the case of Cn1ccnc1CN1C[C@H]2CCN(c3ncccn3)C[C@H]2C1, the IC50 is reported as > 50 µM (inactive). Compound COc1ccc(CN(C(=O)c2cc(-c3ccc(C)cc3)on2)C2CCS(=O)(=O)C2)cc1 (stereo not given) has an IC50 of 10.2 µM. O=C(NCc1ccc2c(c1)OCO2)c1ccc(C2SCC(=O)N2Cc2ccco2)cc1 (stereo not given) was tested, and the IC50 was > 50 µM (inactive). For CS(=O)(=O)n1nc(NCc2ccc(F)cc2)nc1NCc1ccc(F)cc1, the IC50 was > 50 µM (inactive). Work on COc1ccccc1CC(=O)Nc1nc2ccccc2[nH]1 yielded an IC50 of 28.4 µM. With COc1ccc(CCNc2c(-c3ccccc3O)nc3cnccn23)cc1OC the IC50 was > 50 µM (inactive). O=C(Cn1cccc1-c1nc(-c2ccccc2)cs1)N1CCOCC1 gave an IC50 of 20.6 µM. Work on Cc1cccc(C(=O)Nc2ccccc2Sc2nc3c(c(=O)n(C)c(=O)n3C)n2C)c1 yielded an IC50 of 32.5 µM. In the case of COc1ccc(C(C)=O)cc1CC(=O)Nc1nc2ccccc2[nH]1, the IC50 is reported as > 50 µM (inactive). With CN1CCN(c2ccc3nc(-c4ccccc4)c(-c4ccccc4)nc3c2)CC1 the IC50 was > 50 µM (inactive). In the case of Cc1cc(/C=C2/C(=N)N3C(c4ccccc4)=CSC3=NC2=O)c(C)n1-c1ccc(F)cc1, the IC50 is reported as > 50 µM (inactive). In the case of Fc1cccc(-n2cc(-c3noc(-c4ccc[nH]4)n3)nn2)c1, the IC50 is reported as > 50 µM (inactive). In the case of O=C(CSc1nnc(Cn2cnc3ccccc32)o1)Nc1ccc([N+](=O)[O-])cc1, the IC50 is reported as 19.3 µM. O=C(Nc1ccc2c(c1)OCCO2)c1ccc(N2CCCC2=O)cc1 was tested, and the IC50 was 42.4 µM. In the case of Cc1ccc2c(c1)N=C(c1ccc([N+](=O)[O-])cc1)CO2, the IC50 is reported as > 50 µM (inactive).
